Measurements reported in patent US12024571B2, “Anti-erythropoietin receptor peptide” (Epo-Med Inc., priority 2018, dated 2024).
Bridge positions count the residues as written; N and C are the ends. Square brackets hold non-standard residues; d marks the D form. Ala(benzothiazol-2-yl) = N[C@@H](Cc1nc2ccccc2s1)C(=O)O

Experiments:
[1] = tested on: human leukemia derived UT-7 cells; assay: Epo dependent UT-7 cell proliferation, WST assay; format: cell-based; conditions: Epo 1 U/mL, 4 days; GT-11309 1 to 100 μM, antibodies 1 to 100 μg/mL; FIG. 42
Procedure: Human leukemia derived UT-7 cells (provided by Dr. Fujita at the Hokkaido University) were passaged (twice/week) under the condition of 37° C. and 5% CO2-95% air using a D-MEM medium (Sigma, D5796-500 ML) comprising recombinant human erythropoietin (Epo, 2 U/mL) and 10% fetal bovine serum (biowest, S182-H-500), and cultured for a total of 9 weeks. The Epo treated UT-7 cells were washed three times and seeded on a 96-well microplate (1×10^4/well). An anti-Epo monoclonal antibody (clone R6, provided by Dr. Masuda at the Kyoto University, 1 to 100 μg/mL), anti-EpoR monoclonal antibody (clone 713210, R&D Systems, MAB3073, 1 to 100 μg/mL) or GT-11309 (1 to 100 μM), in the presence of Epo (0 to 10 U/mL) or Epo (1 U/mL), was added. After 4 days of culture, the cell proliferation capability for each well was measured as absorbance at 450 nm by a WST assay (DOJINDO LABORATORIES, Cell Counting Kit-8).

[2] = tested on: human liver cancer derived HepG2 cells; assay: Lethal effect of synthetic peptides on HepG2 cells (Trypan blue positive cell count); format: cell-based; conditions: 120, 60, 30 or 15 μM, 24 hours; FIGS. 34 to 37
[3] = tested on: human T cell leukemia derived ATL-2 cells; assay: ATL-2 cell proliferation, WST assay; format: cell-based; conditions: 150 μM, 72 hours, FIG. 39
Procedure: Human T cell leukemia derived ATL-2 cells (provided by Dr. Maeda at the Kyoto University) were passaged (twice/week) under the condition of 37° C. and 5% CO2-95% air using an RPMI-1640 medium (Sigma, R8758-500 mL) comprising 10% fetal bovine serum (biowest, S182H-500). The ATL-2 cells were collected from a culture flask. The cells were suspended in the medium and then seeded on a 96-well microplate (3×10^3/0.05 mL/well). After culturing the cells overnight, a medium comprising the test compounds (total of 32 compounds, final concentration of 150 μM) was added (0.05 mL/well, 3 wells/test compound). After 72 hours, the cell proliferation capability for each well was measured by a WST assay (DOJINDO LABORATORIES, Cell Counting Kit-8), and the inhibition ratio for each test compound against the control (test compound-free well) was calculated.

[4] = tested on: human pancreatic cancer derived AsPC-1 cells; assay: AsPC-1 cell proliferation, WST assay; format: cell-based; conditions: 10, 30 or 100 μM, 72 hours, FIG. 43
Procedure: Human pancreatic cancer derived AsPC-1 cells (ECACC, 96020930) were passaged (twice/week) under the condition of 37° C. and 5% CO2-95% air using an RPMI-1640 medium (Sigma, R8758-500 ML) comprising 10% fetal bovine serum (biowest, S182H-500) and 1 mM sodium pyruvate (gibco, 11360-070). The AsPC-1 cells were collected from a culture dish using 0.05% trypsin-0.02% EDTA solution (Sigma, T4174-100 ML). The cells were suspended in the medium and then seeded on a 96-well microplate (3×10^3/0.05 mL/well). After culturing the cells overnight, a medium comprising the test compounds (total of 43 compounds, final concentration of 150 μM) was added (0.05 mL/well, 3 wells/test compound). After 72 hours, the cell proliferation capability for each well was measured by a WST assay (DOJINDO LABORATORIES, Cell Counting Kit-8), and the inhibition ratio for each test compound against the control (test compound-free well) was calculated.
A WST assay is a viable cell count measuring method, which uses water-soluble tetrazolium salt WST-8 as a coloring reagent and uses water-soluble formazan generated by reduction of WST-8 as an indicator of viable cell count. NADH produced by a dehydrogenase in a cell converts WST-8 to water-soluble formazan. Since the generated water-soluble formazan has the maximum absorbance at about 450 nm, the viable cell count is indicated by measuring the absorbance at such a wavelength region.
Human pancreatic cancer derived AsPC-1 cells (ECACC, 96020930) were cultured, collected, and seeded on a 96-well microplate (3×10^3/0.05 mL/well) in the same manner as Example 3. After culturing the cells overnight, a medium comprising the test compounds (10, 30, or 100 μM) was added (0.05 mL/well, 3 wells/test compound). After 72 hours, the cell proliferation capability for each well was measured by a WST assay (DOJINDO LABORATORIES, Cell Counting Kit-8), and the inhibition ratio for each test compound against the control (test compound-free well) was computed.

[5] = tested on: human pancreatic cancer derived AsPC-1 cells; assay: Tumor growth in AsPC-1 cancer-bearing nude mouse model; format: in vivo; conditions: intraperitoneal
Procedure: (§1) Human pancreatic cancer derived AsPC-1 cells (ECACC, 96020930) were cultured and collected in the same manner as Example 3, suspended in the RPMI-1640 medium described above comprising 10% Matrigel (BD Bioscience, 354234), and transplanted subcutaneously to the right side on the back of a 6-week-old male nude mouse (SLC, BALB/cSlc-nu/nu) (5×10^6/0.1 mL/mouse). The length (L) and width (W) of the tumor were measured using a digital caliper. When the tumor volume (V) calculated from the formula V=L×W^2/2 reached about 150 to 200 mm^3, the mice were separated into groups and administered with test compounds (total of 8 compounds including GT-11263). Saline was administered to a control group. The compounds were administered intraperitoneally (0.1 mL/mouse, 3 to 5 mice/test compound) 3 times daily (one hour interval, a total of 0.2 mg/day), 3 times a week for 2 weeks. The tumor size and body weight were measured twice a week to monitor the status of tumor growth and the effect of the administration of test compounds.
In the same manner as Example 5, human pancreatic cancer derived AsPC-1 cells were transplanted subcutaneously to the right side on the back of a 6-week-old male nude mouse (SLC, BALB/cSlc-nu/nu) (5×10^6/0.1 mL/mouse). The length (L) and width (W) of the tumor were measured using a digital caliper. When the tumor volume (V) calculated from the formula V=L×W^2/2 reached about 150 to 200 mm^3, the mice were separated into groups and administered with test compounds (GT-11269, GT-11309, and GT-11350). Saline was administered to a control group. The compounds were administered intraperitoneally (0.1 mL/mouse, 5 mice/test compound) 3 times daily (one hour interval, a total of 0.5 mg/day), twice a week for 4 weeks. The tumor size and body weight were measured twice a week to monitor the effect of the administration of test compounds (FIG. 45).
(§2) In the same manner as Example 5, human pancreatic cancer derived AsPC-1 cells were transplanted subcutaneously to the right side on the back of a 6-week-old male nude mouse (SLC, BALB/cSlc-nu/nu), and when the tumor volume (V) reached about 150 to 200 mm^3, the mice were separated into groups and administered with test compounds (GT-11350). Saline was administered to a control group. The compounds were administered intraperitoneally (0.1 mL/mouse) 3 times daily (one hour interval, a total of 0.1 mg, 0.2 mg, or 0.4 mg/day), twice a week for 4 weeks. The tumor size and body weight were measured twice a week to monitor the effect of the dose of test compounds (FIG. 49).
as §2, with “of” for “of 0.1 mg,”, “mg/day)” for “mg,”, “once daily (0.2” for “0.4”, “administration” for “dose”, “compounds.” for “compounds (FIG. 49).”

[6] = Body weight of AsPC-1 cancer-bearing mice given peptides; format: in vivo, mouse; conditions: total 0.1, 0.2 or 0.4 mg/day, twice a week for 4 weeks; FIG. 49
Procedure: as §1, with “The compounds were administered intraperitoneally (0.1 mL/mouse, 3 to 5 mice/test compound) 3 times daily (one hour interval, a total of 0.2 mg/day), 3 times a week for 2 weeks.” left out
In the same manner as Example 5, human pancreatic cancer derived AsPC-1 cells were transplanted subcutaneously to the right side on the back of a 6-week-old male nude mouse (SLC, BALB/cSlc-nu/nu) (5×10^6/0.1 mL/mouse). The length (L) and width (W) of the tumor were measured using a digital caliper. When the tumor volume (V) calculated from the formula V=L×W^2/2 reached about 150 to 200 mm^3, the mice were separated into groups and administered with test compounds (GT-11269, GT-11309, and GT-11350). […]

[7] = Hematocrit value and blood hemoglobin concentration in AsPC-1 cancer-bearing mice; format: in vivo, mouse; conditions: day 4 from final administration, 0.1, 0.2 or 0.4 mg/day; FIG. 50
Procedure: (§3) Blood was drawn on day 6 from the final administration from an AsPC-1 cancer-bearing mouse administered with GT-11269, GT-11309, or GT-11350 by the same protocol, and the hematocrit value was measured by the capillary method using a high speed centrifuge. The blood hemoglobin concentration was also measured using a commercially available measurement kit (BioAssay Systems, DIHB-250) (FIG. 47).
as §3, with “4” for “6”, “with” for “with GT-11269, GT-11309, or”, “50).” for “47).”

[8] = tested on: human breast cancer derived HCC1806 cells; assay: HCC1806 breast cancer cell proliferation, amount of ATP (CellTiter-Glo 2.0); format: cell-based; conditions: 0 to 100 μM, 72 hours; FIG. 44 right
Procedure: (§4) Human breast cancer derived HCC1395 cells (ATCC, CRL-2327) and HCC1806 (ATCC, CRL-2335) were cultured, collected, and seeded on a 384-well microplate (1×10^3 and 3×10^3/0.04 mL/well). After culturing the cells overnight, a medium comprising GT-11350 (0 to 100 μM) was added (0.01 mL/well). After 72 hours, the cell proliferation capability for each well against the control (test compound-free well) was calculated using the amount of ATP as an indicator, which was measured using CellTiter-Glo 2.0 (Promega, G9242).

[9] = tested on: human breast cancer derived HCC1395 cells; assay: HCC1395 breast cancer cell proliferation, amount of ATP (CellTiter-Glo 2.0); format: cell-based; conditions: 0 to 100 μM, 72 hours; FIG. 44 left
Procedure: as §4

blood hemoglobin concentration [7]	hematocrit value [7]	Substance	Epo dependent cancer cell proliferation (UT-7) [1]	HepG2 cell killing effect compared with YS12 (Trypan blue positive cells per 1 mm^2) [2]	proliferation inhibiting action on ATL-2 cells (inhibition ratio against control) [3]	proliferation inhibiting action against AsPC-1 cells (inhibition ratio against control) [4]	antitumor effect (relative tumor volume) ([5]; 3 times daily, total 0.2 mg/day, 3 times a week for 2 weeks, FIG. 40)	body weight [6]	anti-tumor effect, 3 times daily versus once daily ([5]; 0.2 mg/day, 3 times daily or once daily, twice a week for 4 weeks, FIG. 51)	anti-tumor effect (relative tumor volume) by dose ([5]; 3 times daily, total 0.1, 0.2 or 0.4 mg/day, twice a week for 4 weeks, FIG. 49)	proliferation suppressing capability against breast cancer cell line HCC1806 [8]	proliferation suppressing capability against breast cancer cell line HCC1395 [9]
–	–	Ac-SCHYGPLT(2-benzothiazolylalanine)VCK-NH2 (Ac-SCHYGPLT[Ala(benzothiazol-2-yl)]VCK-NH2; disulfide 2-11 (inferred)) [GT-11309]	suppressed Epo dependent cancer cell proliferation	equivalent or greater than that of YS12	potent proliferation inhibiting action	potent proliferation inhibiting action	potent and had an early manifestation of effect	–	–	–	–	–
none of the doses had an effect	none of the doses had an effect	Ac-SCHYGPMT(2-benzothiazolylalanine)VCK-NH2 [GT-11350]	–	–	–	potent proliferation inhibiting action	–	not affected	same anti-tumor effect for both 3 times daily and once daily administration methods	dose dependent anti-tumor effect	exhibited proliferation suppressing capability	exhibited proliferation suppressing capability
